Patent publication US20040048842A1, “Method of treating skin disorders” (priority 2002, published 2004)
“And” between values parts separate entries of the source, which are not always exact repeats. Identical values can stand only once.

test: not given; settings: spectral region about 640 to about 940 nanometers; cited from earlier work

Compound | wavelength of light absorbed
5,15-etiobacteriopurpurin | 768 nm and 843 nm
Pd(II)-octabutoxyphthalocyanine | 732 nm and 838 nm
Si(IV)-napthalocyanine | 773 nm

test: Absorption peaks of photosensitizers; format: physicochemical; settings: relevant absorption peaks, Table 1
From the text: FIG. 1 is a graph showing the absorption bands of protoporphyrin IX, which is produced as a result of 5-aminolevulinic acid metabolism in a mammal. Protoporphyrin IX has an absorption band located in the blue spectral region (the 410 nanometer Soret band) and other weaker absorption bands in the 500 to 650 nanometer visible region, namely at about 506 nanometers, 546 nanometers, and 578 nanometers. […] Table 1 lists several photosensitizers useful in the practice of the invention, and identifies relevant absorption peaks for each of the listed photosensitizers. While the 460 nanometer to 620 nanometer wavelength range includes the relatively strong absorption peaks of oxyhemoglobin and deoxyhemoglobin, these blood components have other absorption peaks (although of lower relative maxima) at longer wavelengths. For example, deoxyhemoglobin has a weaker absorption peak at about 757 nanometers, and oxyhemoglobin has a weaker absorption peak at about 920 nanometers. Pulsed light sources in the red and near infrared (up to approximately 940 nanometers), for example, the flash lamp pumped alexandrite laser (755 nanometer), or semiconductor diode lasers, for example, gallium arsenide laser (810 nanometer) are capable of selective photothermolysis of blood vessels, including the microvessels in psoriatic lesions. Accordingly, under certain circumstances, it may be advantageous to use a source of pulsed or scanned irradiation having a wavelength in the range from about 640 nanometers to about 940 nanometers to perform combined selective photothermolysis of blood vessels and photodynamic therapy (using the appropriate photosensitizer) in the target region. Useful photosensitizers that absorb light in this spectral region include, for example, Pd(II)-octabutoxyphthalocyanine (732 nm, 838 nm), Si(IV)-napthalocyanine (773 nm)(Jori (1996) J. PHOTOCHEM. PHOTOBIOL. B 87-93), and 5,15-etiobacteriopurpurin (768 nm, 843 nm) (U.S. Pat. No. 6,376,483 B1).

Compound | Wavelength of absorption peaks
O=C([O-])c1c(Cl)c(Cl)c(Cl)c(Cl)c1-c1c2cc(I)c(=O)c(I)c-2oc2c(I)c([O-])c(I)cc12.[Na+].[Na+] [rose bengal] | 548 nm
benzoporphyrin derivative mono-acid | ˜585 nm
nickel 5,10-bis-acrylate etioporphyrin I | 580 nm
